According to patent publication US7067622B2, “Method of the solid phase synthesis of pyrrole-imidazole polyamide” (Japan Science and Technology Agency, priority 2001, dated 2006):

Tested on: DNA fragment of 450 mer
Assay: DNA alkylation experiment analysed by polyacrylamide gel electrophoresis
Type: biochemical
Procedure: (1) An DNA alkylation experiment was conducted using the above-synthesized Ac-Im-Py-β-ala-CO-Du86.
(2) A similar experiment was conducted by using Im-Im-β-ala-Py-Py-β-ala-CO-Du86. In this case, it was clarified that two imidazole portions recognized guanine in a DNA to cause a sequence-specific DNA alkylation.
(3) A similar experiment was conducted by using Ac-Im-Py-Py-γ-butyl-Py-Py-β-ala-Du86. A pyrrole-imidazole polyamide portion of this compound has a hairpin structure, and one molecule of this compound can recognize both of double strands of a DNA. Though it is known that a Py-Py pair selectively recognizes AT or TA, a Im-Py pair selectively recognizes GC, and a Py-Im pair selectively recognizes CG when the hairpin compound is combined with a DNA in accordance with the Dervan's rule, this compound includes a new pair of β-alanine pair-Im for the molecular recognition. Therefore, a new molecular recognition rule can be discovered using this compound. Accordingly, a DNA alkylation experiment was conducted to confirm the possibility. Results of the experiment are shown in FIG. 3 (DNA: pUC18III 70 nM; Reagent Concentration: 10 nM to 500 nM, 5 samples; Reaction Conditions: sodium phosphate buffer solution (1.46 mM), 37° C., 8 hours).

[1] = DNA fragment of 450 mer, polyacrylamide gel electrophoresis (FIG. 1, FIG. 2)

Compound	DNA sequence recognized and base alkylated (sequence-specific DNA alkylation) (DNA: pUC18III 70 nM, reagent 10 nM to 500 nM, sodium phosphate buffer solution (1.46 mM), 37° C., 8 hours (FIG. 3))	DNA sequence recognized and base alkylated (sequence-specific DNA alkylation) [1]
COC(=O)c1c(C)[nH]c2c1[C@]13C[C@H]1CN(C(=O)CCNC(=O)c1cc(NC(=O)c4cc(NC(=O)CCCNC(=O)c5cc(NC(=O)c6cc(NC(=O)c7cc(NC(C)=O)cn7C)cn6C)cn5C)cn4C)cn1C)C3=CC2=O [Ac-Im-Py-Py-γ-butyl-Py-Py-β-ala-Du86, Ac-Im-Py-Py-γ-butyl-Py-Py-β-ala-CO-Du86]	recognizes 5′-(A/T)(A/T)(A/T)C(A/G)-3′ portion to selectively alkylates adenine of the 3′-end	
COC(=O)c1c(C)[nH]c2c1C13CC1CN(C(=O)CCNC(=O)c1cc(NC(=O)c4nc(NC(C)=O)cn4C)cn1C)C3=CC2=O (stereo not drawn) [Ac-Im-Py-β-ala-CO-Du86]		recognized 5′-TAAA-3′ and alkylated adenine of 3′-end
Im-Im-β-ala-Py-Py-β-ala-CO-Du86		recognized 5′-GGAGAAA-3′ and alkylated adenine of 3′-end
